Target: T1, human NOX4 (Homo sapiens, UniProt Q9NPH5)
T1 construct: expressed in transfected cells; membrane fraction used
T1 sequence (Q9NPH5 1-578): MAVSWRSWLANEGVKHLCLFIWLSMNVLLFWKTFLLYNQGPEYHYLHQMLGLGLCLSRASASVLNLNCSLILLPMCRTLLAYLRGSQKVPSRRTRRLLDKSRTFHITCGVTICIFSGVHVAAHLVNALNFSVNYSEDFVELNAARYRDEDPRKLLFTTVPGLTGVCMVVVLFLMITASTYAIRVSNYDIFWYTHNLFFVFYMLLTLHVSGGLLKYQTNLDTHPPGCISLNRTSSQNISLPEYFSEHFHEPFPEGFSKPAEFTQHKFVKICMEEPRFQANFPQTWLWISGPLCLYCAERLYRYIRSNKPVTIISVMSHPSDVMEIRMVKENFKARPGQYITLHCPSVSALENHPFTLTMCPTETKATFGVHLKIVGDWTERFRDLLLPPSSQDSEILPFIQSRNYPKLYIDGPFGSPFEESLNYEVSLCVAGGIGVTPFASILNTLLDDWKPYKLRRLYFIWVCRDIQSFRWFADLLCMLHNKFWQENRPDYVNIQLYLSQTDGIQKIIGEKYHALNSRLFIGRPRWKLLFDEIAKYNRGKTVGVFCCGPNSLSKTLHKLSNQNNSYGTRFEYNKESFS
T1 sequence (P13498 1-195 partner): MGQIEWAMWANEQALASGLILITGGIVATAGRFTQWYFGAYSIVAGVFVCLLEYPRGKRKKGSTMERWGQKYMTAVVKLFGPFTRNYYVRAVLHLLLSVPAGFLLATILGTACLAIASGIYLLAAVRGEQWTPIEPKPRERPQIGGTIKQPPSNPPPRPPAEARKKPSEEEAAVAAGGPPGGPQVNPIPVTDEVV
Test: Cell free membrane based in vitro NOX4 assay: H2O2 production by membranes expressing human NOX4, measured with Amplex Red
Assay type: biochemical
Conditions: for inhibition at 1 µM: 1.0 μM compound, read-out: Percentage inhibition at 1.0 μM; for inhibition at 10 µM: 10.0 μM compound, read-out: Percentage inhibition at 10.0 μM; for IC50: class symbols
Summary of the method: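 IC50 came from concentration-response curves fitted as % of the inhibitor-free maximum. H2O2 formation was monitored for 10 min via Amplex Red/HRP fluorescence (544/590 nm) after NADPH start. Membranes from a stable hNOX4/HEK line had 20 min exposure to inhibitor beforehand at pH 7.4.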

| SMILES | inhibition at 1 µM [%] | inhibition at 10 µM [%] | IC50 [nM] |
| --- | --- | --- | --- |
| CCCn1nc(CO)c2c(=O)c(O)c(-c3c(F)cccc3F)[nH]c21 [Example 182, 6-(2,6-Difluorophenyl)-5-hydroxy-3-(hydroxymethyl)-1-propyl-1H-pyrazolo[3,4-b]pyridin-4(7H)-one] | 100 | 100 | 50 to 100 |
| Cn1nc(C2CCN(S(C)(=O)=O)CC2)c2c(=O)c(O)c(-c3c(F)cccc3F)[nH]c21 [Example 185, 6-(2,6-Difluorophenyl)-5-hydroxy-1-methyl-3-(1-(methylsulfonyl)piperidin-4-yl)-1H-pyrazolo[3,4-b]pyridin-4(7H)-one] | 80.1 | 78.2 | 50 to 100 |
| Cn1nc(CO)c2c(=O)c(O)c(-c3c(F)cccc3F)[nH]c21 [Example 188, 6-(2,6-Difluorophenyl)-5-hydroxy-3-(hydroxymethyl)-1-methyl-1H-pyrazolo[3,4-b]pyridin-4(7H)-one] | 96.5 | 100 | 100 to 150 |
| Cn1nc(C2CCOCC2)c2c(=O)c(O)c(-c3c(F)cccc3F)[nH]c21 [Example 189, 6-(2,6-Difluorophenyl)-5-hydroxy-1-methyl-3-(tetrahydro-2H-pyran-4-yl)-1H-pyrazolo[3,4-b]pyridin-4(7H)-one] | 99.2 | 98.6 | < 50 |
| Cn1nc(CN2CCOCC2)c2c(=O)c(O)c(-c3c(F)cccc3F)[nH]c21 [Example 191, 6-(2,6-difluorophenyl)-5-hydroxy-1-methyl-3-(morpholinomethyl)-1H-pyrazolo[3,4-b]pyridin-4(7H)-one] | 91.2 | 97.8 | 50 to 100 |
| Cn1nc(C2CCN(S(C)(=O)=O)CC2)c2c(=O)c(O)c(-c3ccccc3Cl)[nH]c21 [Example 194, 6-(2-chlorophenyl)-5-hydroxy-1-methyl-3-(1-(methylsulfonyl)piperidin-4-yl)-1H-pyrazolo[3,4-b]pyridin-4(7H)-one] | 98.3 | 96 | 50 to 100 |
| Cn1nc(CN2CC[C@H](F)C2)c2c(=O)c(O)c(-c3c(F)cccc3F)[nH]c21 [Example 195, (S)-6-(2,6-Difluorophenyl)-3-((3-fluoropyrrolidin-1-yl)methyl)-5-hydroxy-1-methyl-1H-pyrazolo[3,4-b]pyridin-4(7H)-one] | 97.7 | 100 | 100 to 150 |
| Cn1nc(CN2CCN(CC(F)(F)F)CC2)c2c(=O)c(O)c(-c3c(F)cccc3F)[nH]c21 [Example 196, 3-((4-(2,2,2-trifluoroethyl)piperazin-1-yl)methyl)-6-(2,6-difluorophenyl)-5-hydroxy-1-methyl-1H-pyrazolo[3,4-b]pyridin-4(7H)-one] | 100 | 100 | 100 to 150 |
| C[C@@H]1CN(Cc2nn(C)c3[nH]c(-c4c(F)cccc4F)c(O)c(=O)c23)C[C@H](C)O1 [Example 197, 6-(2,6-Difluorophenyl)-3-((2,6-dimethylmorpholino)methyl)-5-hydroxy-1-methyl-1H-pyrazolo[3,4-b]pyridin-4(7H)-one] | 100 | 100 | 100 to 150 |
| Cn1nc(CN2CCOCC2)c2c(=O)c(O)c(-c3ccccc3Cl)[nH]c21 [Example 199, 6-(2-Chlorophenyl)-5-hydroxy-1-methyl-3-(morpholinomethyl)-1H-pyrazolo[3,4-b]pyridin-4(7H)-one] | 86.8 | 93.5 | 100 to 150 |
| CCc1nn(CCN2C[C@@H](C)O[C@@H](C)C2)c2[nH]c(-c3c(F)cccc3F)c(O)c(=O)c12 [Example 200, 6-(2,6-Difluorophenyl)-1-(2-((2R,6S)-2,6-dimethylmorpholino)ethyl)-3-ethyl-5-hydroxy-1H-pyrazolo[3,4-b]pyridin-4(7H)-one] | 91.4 | 90.7 | < 50 |

Further lines, results first:

| inhibition at 1 µM [%] | inhibition at 10 µM [%] | IC50 [nM] | SMILES |
| --- | --- | --- | --- |
| 84.2 | 97.1 | 100 to 150 | O=c1c(O)c(-c2c(F)cccc2F)[nH]c2c1c(CO)nn2C1CC1 [Example 183, 1-Cyclopropyl-6-(2,6-difluorophenyl)-5-hydroxy-3-(hydroxymethyl)-1H-pyrazolo[3,4-b]pyridin-4(7H)-one] |
| 78.8 | 81.6 | > 150 | CCc1nn(CCN2CCOC(C)(C)C2=O)c2[nH]c(-c3c(F)cccc3F)c(O)c(=O)c12 [Example 184, 4-(2-(6-(2,6-Difluorophenyl)-3-ethyl-5-hydroxy-4-oxo-4,7-dihydro-1H-pyrazolo[3,4-b]pyridin-1-yl)ethyl)-2,2-dimethylmorpholin-3-one] |
| 71.9 | 81.2 | > 150 | CS(=O)(=O)N1CCC(c2nn(C3CC3)c3[nH]c(-c4c(F)cccc4F)c(O)c(=O)c23)CC1 [Example 186, 1-Cyclopropyl-6-(2,6-difluorophenyl)-5-hydroxy-3-(1-(methylsulfonyl)piperidin-4-yl)-1H-pyrazolo[3,4-b]pyridin-4(7H)-one] |
| 77 | 77.8 | 100 to 150 | CCc1nn(C)c2[nH]c(-c3cnc(-c4ccc(F)cc4F)s3)c(O)c(=O)c12 [Example 187, 6-(2-(2,4-Difluorophenyl)thiazol-5-yl)-3-ethyl-5-hydroxy-1-methyl-1H-pyrazolo[3,4-b]pyridin-4(7H)-one] |
| 93.1 | 100 | < 50 | O=c1c(O)c(-c2c(F)cccc2F)[nH]c2c1c(C1CCOCC1)nn2C1CC1 [Example 190, 1-Cyclopropyl-6-(2,6-difluorophenyl)-5-hydroxy-3-(tetrahydro-2H-pyran-4-yl)-1H-pyrazolo[3,4-b]pyridin-4(7H)-one] |
| 90.6 | 95.3 | 50 to 100 | CC(C)N1CCN(Cc2nn(C)c3[nH]c(-c4c(F)cccc4F)c(O)c(=O)c23)CC1 [Example 192, 6-(2,6-Difluorophenyl)-5-hydroxy-3-((4-isopropylpiperazin-1-yl)methyl)-1-methyl-1H-pyraazolo[3,4-b]pyridin-4(7H)-one] |
| 84.7 | 75.4 | < 50 | Cn1nc(C2CCOCC2)c2c(=O)c(O)c(-c3ccccc3Cl)[nH]c21 [Example 193, 6-(2-Chlorophenyl)-5-hydroxy-1-methyl-3-(tetrahydro-2H-pyran-4-yl)-1H-pyrazolo[3,4-b]pyridin-4(7H)-one] |
| 87.7 | 86.7 | 50 to 100 | Cn1nc(CO)c2c(=O)c(O)c(-c3ccccc3Cl)[nH]c21 [Example 198, 6-(2-Chlorophenyl)-5-hydroxy-3-(hydroxymethyl)-1-methyl-1H-pyrazolo[3,4-b]pyridin-4(7H)-one] |
| 74 | 87 | > 150 | O=c1c(O)c(-c2c(F)cccc2F)[nH]c2c1c(CN1CCOCC1)nn2C1CC1 [Example 201, 1-Cyclopropyl-6-(2,6-difluorophenyl)-5-hydroxy-3-(morpholinomethyl)-1H-pyrazolo[3,4-b]pyridin-4(7H)-one] |

From patent US20200247800A1, “SUBSTITUTED BICYCLIC HETEROCYCLIC COMPOUNDS AS NADPH OXIDASE INHIBITORS” (Glenmark Pharmaceuticals S.A., priority 2017, published 2020)
